Source: ChEMBL document CHEMBL1201862, “PubChem BioAssay data set” (2004)
Activity calls are given as the source filed them.

Key:
[1] = biological target: Intestinal-type alkaline phosphatase (Mus musculus, UniProt P24822); assay: PubChem AID 488785; type: functional
[2] = biological target: Intestinal-type alkaline phosphatase (Homo sapiens, UniProt P09923); assay: inhibition of human intestinal alkaline phosphatase – biochemical, dose response (AID 488876); type: functional
[3] = biological target: T1, Alkaline phosphatase, tissue-nonspecific isozyme (Homo sapiens, UniProt P05186); assay: TNAP enzyme inhibition by screening hits, dose response, selectivity assay for mouse IAP inhibitor project, biochemical, human TNAP, uHTS hits (AID 488906); type: functional
T1 sequence (P05186 whole entry): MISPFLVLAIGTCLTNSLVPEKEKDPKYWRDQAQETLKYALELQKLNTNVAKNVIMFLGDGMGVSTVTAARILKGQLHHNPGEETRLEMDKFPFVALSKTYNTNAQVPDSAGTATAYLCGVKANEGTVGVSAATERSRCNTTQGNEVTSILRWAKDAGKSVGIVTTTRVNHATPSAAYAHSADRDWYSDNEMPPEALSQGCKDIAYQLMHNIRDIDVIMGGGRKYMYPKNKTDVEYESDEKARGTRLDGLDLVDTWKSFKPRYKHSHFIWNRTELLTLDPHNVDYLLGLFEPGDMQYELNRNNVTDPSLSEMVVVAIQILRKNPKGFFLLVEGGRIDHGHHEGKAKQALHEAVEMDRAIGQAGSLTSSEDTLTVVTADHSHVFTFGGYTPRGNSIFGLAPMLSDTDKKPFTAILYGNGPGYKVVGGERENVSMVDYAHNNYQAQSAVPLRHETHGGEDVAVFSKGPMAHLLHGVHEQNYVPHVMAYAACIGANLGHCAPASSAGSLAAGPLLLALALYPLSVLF

Mu-type opioid receptor = Mu-type opioid receptor (Homo sapiens, UniProt P35372); assay: (§1) Counterscreen for agonists of heterodimerization of the mu 1 (OPRM1) and delta 1 (OPRD1) opioid receptors: Luminescence-based cell-based high throughput dose response assay to identify agonists of OPRM1 homodimerization.; type: functional
[4] = biological target: 5-hydroxytryptamine receptor 5A (Homo sapiens, UniProt P47898); assay: Counterscreen for agonists of OPRM1-OPRD1 heterodimerization: luminescence-based cell-based high throughput dose response assay to identify agonists of 5-hydroxytryptamine (serotonin) 5A receptor (HTR5A). [Related pubchem assays (depositor defined):AID504326, AID504355, AID504692, AID504904, AID504905]; type: functional
[5] = biological target: Delta-type opioid receptor (Homo sapiens, UniProt P41143); assay: as §1, with “of OPRD1” for “of OPRM1”, “homodimerization. [Related pubchem assays (depositor defined):AID504326, AID504355, AID504692, AID504904, AID504905]” for “homodimerization.”; type: functional
Cytochrome P450 2C9 = Cytochrome P450 2C9 (Homo sapiens, UniProt P11712)
[6] = biological target: T2, Short transient receptor potential channel 4 (Mus musculus, UniProt Q9QUQ5); assay: calcium entry via TRPC4 opening agents – cell-based, HEK293 TRPC4/mu-opioid, Fluo-4 calcium, dose response (AID 434937); type: functional
T2 sequence (Q9QUQ5 whole entry): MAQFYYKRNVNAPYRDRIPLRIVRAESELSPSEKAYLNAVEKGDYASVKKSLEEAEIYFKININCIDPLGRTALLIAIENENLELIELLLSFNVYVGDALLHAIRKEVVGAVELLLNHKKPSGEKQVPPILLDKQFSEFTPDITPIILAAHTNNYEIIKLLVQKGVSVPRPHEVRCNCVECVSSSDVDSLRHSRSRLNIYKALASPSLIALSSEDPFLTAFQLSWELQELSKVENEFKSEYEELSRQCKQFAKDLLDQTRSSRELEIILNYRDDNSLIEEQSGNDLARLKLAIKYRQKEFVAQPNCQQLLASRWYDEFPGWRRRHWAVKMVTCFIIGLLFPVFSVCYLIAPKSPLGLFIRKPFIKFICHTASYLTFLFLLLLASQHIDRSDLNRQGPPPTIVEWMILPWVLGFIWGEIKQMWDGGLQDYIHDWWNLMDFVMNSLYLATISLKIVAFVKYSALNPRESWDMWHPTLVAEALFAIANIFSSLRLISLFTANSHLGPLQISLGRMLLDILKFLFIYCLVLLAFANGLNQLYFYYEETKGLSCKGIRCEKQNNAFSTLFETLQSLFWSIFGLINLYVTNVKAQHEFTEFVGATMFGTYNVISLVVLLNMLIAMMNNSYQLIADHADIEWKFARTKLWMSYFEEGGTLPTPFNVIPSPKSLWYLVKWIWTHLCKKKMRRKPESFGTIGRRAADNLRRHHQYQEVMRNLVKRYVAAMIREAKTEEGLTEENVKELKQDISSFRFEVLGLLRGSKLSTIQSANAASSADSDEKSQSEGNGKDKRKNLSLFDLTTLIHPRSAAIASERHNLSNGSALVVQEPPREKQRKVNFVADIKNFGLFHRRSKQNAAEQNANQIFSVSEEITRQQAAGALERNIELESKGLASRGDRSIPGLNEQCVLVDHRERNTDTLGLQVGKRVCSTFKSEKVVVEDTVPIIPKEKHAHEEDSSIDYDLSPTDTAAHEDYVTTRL

Vero = assay: viability of Vero cells under compound – cytotoxicity control for flavivirus capping enzyme inhibitors (AID 588742); type: functional; details: Chlorocebus sabaeus
Cytochrome P450 2D6 = Cytochrome P450 2D6 (Homo sapiens, UniProt P10635);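 further: CYP2D6 member of a cytochrome P450 panel assay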
[7] = biological target: T3, Endoribonuclease toxin MazF (Escherichia coli K-12, UniProt P0AE70); assay: substrate-only fluorescence increase artefacts – biochemical, single-stranded RNase substrate, counter-screen for MazEF activator project, dose response (AID 588502); type: functional
T3 sequence (P0AE70 whole entry): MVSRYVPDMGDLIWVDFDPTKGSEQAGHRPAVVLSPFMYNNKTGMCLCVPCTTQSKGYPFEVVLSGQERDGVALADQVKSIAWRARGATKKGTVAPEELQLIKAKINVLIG

[8] = biological target: T3, Endoribonuclease toxin MazF; assay: activation of MazEF endoribonuclease cleavage – biochemical, fluorescence, single-stranded RNA substrate, uHTS hits, dose response (AID 588481); type: functional
Escherichia coli [9] = assay: microbe, parasite or virus in culture
Escherichia coli [10] = assay: microbe, parasite or virus in culture; remark: listed apart in the source
[11] = biological target: T4, Ubiquitin-conjugating enzyme E2 N (Homo sapiens, UniProt P61088); type: functional
T4 sequence (P61088 whole entry): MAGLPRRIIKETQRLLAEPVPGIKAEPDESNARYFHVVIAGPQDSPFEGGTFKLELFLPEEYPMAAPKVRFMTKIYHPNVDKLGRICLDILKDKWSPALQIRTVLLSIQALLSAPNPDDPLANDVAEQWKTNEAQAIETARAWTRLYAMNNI

Nonstructural protein 1 = Nonstructural protein 1 (Influenza A virus, UniProt Q194T2); type: functional, Influenza A virus (A/California/07/2009(H1N1))
[12] = biological target: T4, Ubiquitin-conjugating enzyme E2 N; type: functional; remark: listed apart in the source
[13] = biological target: T5, DNA repair protein RAD52 homolog (Homo sapiens, UniProt P43351); type: functional, biochemical
T5 sequence (P43351 whole entry): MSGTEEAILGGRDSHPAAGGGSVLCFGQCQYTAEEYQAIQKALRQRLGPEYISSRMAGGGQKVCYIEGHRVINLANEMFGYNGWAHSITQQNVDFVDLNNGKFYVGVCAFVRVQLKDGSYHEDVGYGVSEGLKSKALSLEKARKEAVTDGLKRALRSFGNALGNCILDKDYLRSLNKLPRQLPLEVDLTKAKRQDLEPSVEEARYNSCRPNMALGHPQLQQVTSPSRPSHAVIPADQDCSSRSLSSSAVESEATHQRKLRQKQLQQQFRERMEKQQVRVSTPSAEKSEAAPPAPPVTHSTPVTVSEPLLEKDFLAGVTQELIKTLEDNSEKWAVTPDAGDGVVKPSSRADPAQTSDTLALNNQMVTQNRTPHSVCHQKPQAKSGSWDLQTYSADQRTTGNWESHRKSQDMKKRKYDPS

Bcl-2-related protein A1 = biological target: T6, Bcl-2-related protein A1 (Mus musculus, UniProt Q07440); type: functional;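 further: confirmatory dose–response counterscreen on Bfl-1, used to check hits from a UBC13 polyubiquitin inhibitor campaign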
T6 sequence (Q07440 whole entry): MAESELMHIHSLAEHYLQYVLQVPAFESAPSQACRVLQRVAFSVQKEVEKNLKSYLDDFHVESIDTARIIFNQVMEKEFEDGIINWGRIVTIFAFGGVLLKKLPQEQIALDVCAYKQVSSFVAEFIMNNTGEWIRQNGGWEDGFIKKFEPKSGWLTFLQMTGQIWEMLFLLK

Paired box protein Pax-8 = Paired box protein Pax-8 (Homo sapiens, UniProt Q06710); assay: PAX8 transcriptional activity inhibition in RMG-I – RMG-I cells, luciferase, cherry-pick, dose response (AID 687027); type: functional, cell-based;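 further: luciferase reporter driven by Pax8 target thyroperoxidase promoter measured by SteadyGlo luminescence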
HEK293 = assay: HEK293T cell viability loss, resazurin readout – resazurin fluorescence, cytotoxicity control for NF-kB activator project, SAR follow-up (AID 493251); type: functional, cell-based; details: Homo sapiens
[14] = biological target: ALK tyrosine kinase receptor (Homo sapiens, UniProt Q9UM73); type: functional;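 further: ALK tested as one member of a kinase panel screen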
[15] = biological target: Cyclin-dependent kinase 19 (Homo sapiens, UniProt Q9BWU1); assay: Navigating the Kinome. Panel member name: CDC2L6; type: functional
Cyclin-dependent kinase 19, sequence (Q9BWU1 whole entry): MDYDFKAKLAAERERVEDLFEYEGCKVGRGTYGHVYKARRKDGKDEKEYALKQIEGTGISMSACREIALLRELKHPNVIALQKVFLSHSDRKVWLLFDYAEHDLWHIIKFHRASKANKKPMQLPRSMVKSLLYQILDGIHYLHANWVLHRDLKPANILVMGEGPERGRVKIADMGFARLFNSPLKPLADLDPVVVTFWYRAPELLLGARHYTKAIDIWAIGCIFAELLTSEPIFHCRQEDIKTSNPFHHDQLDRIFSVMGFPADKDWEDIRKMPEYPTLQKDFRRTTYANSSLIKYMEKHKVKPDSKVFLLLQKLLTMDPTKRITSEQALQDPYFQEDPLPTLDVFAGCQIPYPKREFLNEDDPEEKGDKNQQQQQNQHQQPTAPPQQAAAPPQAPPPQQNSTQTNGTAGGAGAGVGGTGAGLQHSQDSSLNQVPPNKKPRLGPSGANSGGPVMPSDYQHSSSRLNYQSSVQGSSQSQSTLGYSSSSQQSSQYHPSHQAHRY

Delta-type opioid receptor, sequence (P41143 whole entry): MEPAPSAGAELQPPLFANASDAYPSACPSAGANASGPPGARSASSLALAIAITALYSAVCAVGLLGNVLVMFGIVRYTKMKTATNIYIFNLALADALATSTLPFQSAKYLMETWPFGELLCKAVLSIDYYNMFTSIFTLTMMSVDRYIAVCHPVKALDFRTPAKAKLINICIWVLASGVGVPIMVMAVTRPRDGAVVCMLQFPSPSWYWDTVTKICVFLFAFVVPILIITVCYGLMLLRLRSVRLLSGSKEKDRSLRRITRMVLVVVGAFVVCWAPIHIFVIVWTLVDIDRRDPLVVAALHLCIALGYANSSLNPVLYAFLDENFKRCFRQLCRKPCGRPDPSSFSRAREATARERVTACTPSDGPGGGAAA
5-hydroxytryptamine receptor 5A, sequence (P47898 whole entry): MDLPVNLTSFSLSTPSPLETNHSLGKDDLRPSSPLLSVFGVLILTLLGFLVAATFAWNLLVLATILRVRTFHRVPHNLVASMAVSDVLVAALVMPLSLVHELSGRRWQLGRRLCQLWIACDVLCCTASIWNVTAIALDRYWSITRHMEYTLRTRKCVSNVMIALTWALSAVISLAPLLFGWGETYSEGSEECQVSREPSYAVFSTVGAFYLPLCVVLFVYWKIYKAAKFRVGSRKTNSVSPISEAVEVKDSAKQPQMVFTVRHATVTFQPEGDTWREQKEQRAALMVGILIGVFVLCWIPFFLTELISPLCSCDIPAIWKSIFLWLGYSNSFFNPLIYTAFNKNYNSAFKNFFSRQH
Mu-type opioid receptor, sequence (P35372 whole entry): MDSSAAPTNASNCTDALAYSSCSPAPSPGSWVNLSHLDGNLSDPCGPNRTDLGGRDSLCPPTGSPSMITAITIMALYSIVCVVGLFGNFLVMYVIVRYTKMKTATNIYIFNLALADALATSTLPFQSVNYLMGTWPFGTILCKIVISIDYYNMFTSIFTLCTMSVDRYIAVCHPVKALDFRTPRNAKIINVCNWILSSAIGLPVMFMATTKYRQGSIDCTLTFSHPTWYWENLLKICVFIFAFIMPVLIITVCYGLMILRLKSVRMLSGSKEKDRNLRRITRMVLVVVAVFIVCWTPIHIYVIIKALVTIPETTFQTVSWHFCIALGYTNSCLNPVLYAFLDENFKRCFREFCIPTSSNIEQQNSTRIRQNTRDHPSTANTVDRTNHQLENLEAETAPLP
Cytochrome P450 2C9, sequence (P11712 whole entry): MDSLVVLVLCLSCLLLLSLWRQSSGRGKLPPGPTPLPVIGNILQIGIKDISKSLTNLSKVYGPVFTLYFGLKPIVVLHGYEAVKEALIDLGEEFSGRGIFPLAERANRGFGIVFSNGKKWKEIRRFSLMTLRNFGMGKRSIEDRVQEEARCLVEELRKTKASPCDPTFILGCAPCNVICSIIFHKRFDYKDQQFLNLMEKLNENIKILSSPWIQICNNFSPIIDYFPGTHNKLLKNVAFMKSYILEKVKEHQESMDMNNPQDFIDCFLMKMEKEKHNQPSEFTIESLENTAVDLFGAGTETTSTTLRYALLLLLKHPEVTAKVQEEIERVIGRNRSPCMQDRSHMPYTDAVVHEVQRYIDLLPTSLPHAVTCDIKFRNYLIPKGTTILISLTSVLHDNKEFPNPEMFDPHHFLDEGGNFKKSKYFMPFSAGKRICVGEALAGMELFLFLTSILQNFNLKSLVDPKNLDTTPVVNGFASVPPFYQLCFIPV
Intestinal-type alkaline phosphatase (Mus musculus, UniProt P24822), sequence (P24822 whole entry): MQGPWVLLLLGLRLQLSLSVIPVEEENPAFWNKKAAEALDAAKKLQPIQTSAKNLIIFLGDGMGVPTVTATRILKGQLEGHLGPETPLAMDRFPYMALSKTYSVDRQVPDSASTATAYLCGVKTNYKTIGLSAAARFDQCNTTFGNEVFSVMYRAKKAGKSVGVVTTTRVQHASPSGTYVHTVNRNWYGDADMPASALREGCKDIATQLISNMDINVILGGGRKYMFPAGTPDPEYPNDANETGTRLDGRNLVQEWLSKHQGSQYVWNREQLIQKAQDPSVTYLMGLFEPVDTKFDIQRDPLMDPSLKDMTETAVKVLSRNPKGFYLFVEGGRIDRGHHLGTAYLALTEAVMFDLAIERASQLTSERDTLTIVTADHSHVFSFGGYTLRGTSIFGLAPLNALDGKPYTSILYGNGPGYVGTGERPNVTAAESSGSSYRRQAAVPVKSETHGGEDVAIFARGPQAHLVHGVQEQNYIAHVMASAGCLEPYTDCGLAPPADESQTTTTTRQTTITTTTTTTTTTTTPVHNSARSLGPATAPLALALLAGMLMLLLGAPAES
Intestinal-type alkaline phosphatase (Homo sapiens, UniProt P09923), sequence (P09923 whole entry): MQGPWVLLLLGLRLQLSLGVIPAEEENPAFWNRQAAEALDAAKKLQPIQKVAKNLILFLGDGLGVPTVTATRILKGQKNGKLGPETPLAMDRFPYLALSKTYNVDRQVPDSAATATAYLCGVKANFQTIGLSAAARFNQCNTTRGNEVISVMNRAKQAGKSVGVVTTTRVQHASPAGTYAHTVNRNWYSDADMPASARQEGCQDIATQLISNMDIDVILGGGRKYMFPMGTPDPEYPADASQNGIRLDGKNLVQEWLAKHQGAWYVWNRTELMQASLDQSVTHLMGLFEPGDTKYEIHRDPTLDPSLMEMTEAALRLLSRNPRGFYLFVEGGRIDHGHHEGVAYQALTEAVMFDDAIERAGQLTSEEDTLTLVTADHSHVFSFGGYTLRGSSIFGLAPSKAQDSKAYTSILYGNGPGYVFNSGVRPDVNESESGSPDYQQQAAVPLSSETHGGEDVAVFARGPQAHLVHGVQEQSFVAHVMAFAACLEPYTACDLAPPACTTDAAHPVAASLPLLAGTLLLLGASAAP
Paired box protein Pax-8, sequence (Q06710 whole entry): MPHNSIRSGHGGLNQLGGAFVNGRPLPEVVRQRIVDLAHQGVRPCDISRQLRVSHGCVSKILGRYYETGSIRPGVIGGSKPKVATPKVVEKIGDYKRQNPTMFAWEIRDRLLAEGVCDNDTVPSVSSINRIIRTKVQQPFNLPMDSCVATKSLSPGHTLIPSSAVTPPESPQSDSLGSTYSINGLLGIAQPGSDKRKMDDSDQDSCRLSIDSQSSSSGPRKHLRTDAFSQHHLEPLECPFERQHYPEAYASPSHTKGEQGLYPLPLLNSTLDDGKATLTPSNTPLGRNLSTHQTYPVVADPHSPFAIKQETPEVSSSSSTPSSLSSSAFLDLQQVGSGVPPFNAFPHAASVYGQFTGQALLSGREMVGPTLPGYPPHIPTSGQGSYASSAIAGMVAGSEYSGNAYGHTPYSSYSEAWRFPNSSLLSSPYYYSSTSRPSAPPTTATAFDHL
Cytochrome P450 2D6, sequence (P10635 whole entry): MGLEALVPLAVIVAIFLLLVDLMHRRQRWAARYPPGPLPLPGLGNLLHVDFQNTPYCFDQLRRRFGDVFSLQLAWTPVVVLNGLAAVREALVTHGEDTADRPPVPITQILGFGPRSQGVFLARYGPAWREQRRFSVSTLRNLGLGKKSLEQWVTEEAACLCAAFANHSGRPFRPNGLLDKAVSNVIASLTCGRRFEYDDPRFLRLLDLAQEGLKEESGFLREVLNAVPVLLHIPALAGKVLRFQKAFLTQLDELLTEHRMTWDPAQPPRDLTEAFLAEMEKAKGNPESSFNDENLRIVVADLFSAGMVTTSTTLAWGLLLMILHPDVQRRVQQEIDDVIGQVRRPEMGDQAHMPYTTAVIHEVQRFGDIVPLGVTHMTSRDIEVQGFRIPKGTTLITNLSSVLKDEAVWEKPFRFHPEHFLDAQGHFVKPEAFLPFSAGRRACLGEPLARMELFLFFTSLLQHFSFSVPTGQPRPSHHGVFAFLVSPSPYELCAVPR
Nonstructural protein 1, sequence (Q194T2 whole entry): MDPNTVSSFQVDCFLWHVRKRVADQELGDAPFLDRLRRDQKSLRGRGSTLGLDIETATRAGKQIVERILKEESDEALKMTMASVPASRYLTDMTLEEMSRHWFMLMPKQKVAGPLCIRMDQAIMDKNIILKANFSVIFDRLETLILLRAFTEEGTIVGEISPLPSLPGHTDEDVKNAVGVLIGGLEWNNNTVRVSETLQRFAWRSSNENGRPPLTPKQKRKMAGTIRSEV

With `O=C1NN(c2cccc(Br)c2)C(=O)/C1=C/c1ccc(-c2cc([N+](=O)[O-])ccc2O)o1` the IC50 [1] was 4.7 µM (active), the IC50 [2] was > 100 µM (inactive) and the IC50 [3] was > 100 µM (inactive).
For `CCN1CCN(c2ccc([N+](=O)[O-])c(Sc3nc4ccccc4[nH]3)c2)CC1`, the EC50 (Mu-type opioid receptor) was > 92.5 µM (inactive), the EC50 [4] was > 92.5 µM (inactive) and the EC50 [5] was 4.1 µM (active).
With `Cc1cc(C)c(NC(=O)NC(=O)c2ccc(F)cc2)c(C)n1` the AC50 (Cytochrome P450 2C9) was “inconclusive”.
In the case of `COc1ccc2c(Cl)c(-c3nnc(SCC(=O)c4ccccc4)n3C)sc2c1`, the EC50 (Mu-type opioid receptor) is reported as 10.3 µM (inactive), the EC50 [4] is reported as > 92.5 µM (inactive) and the EC50 [5] is reported as 26.5 µM (inactive). For the same compound, the EC50 [6] was 668 nM (active).
With `Cc1ccc(-c2cc(C(=O)NCc3ccco3)c3ccccc3n2)s1` the CC50 (Vero) was > 40 µM (active).
With `COc1ccc(CNc2ccnc(-c3cccc(NS(C)(=O)=O)c3)n2)c(OC)c1` the AC50 (Cytochrome P450 2C9) was “inconclusive” and the AC50 (Cytochrome P450 2D6) was 12.6 µM (inconclusive).
With `CCOC(=O)C1=C(C)N(CC(C)C)C(=O)/C1=C\c1cccs1` the EC50 [7] was > 99 µM (inactive) and the EC50 [8] was > 99 µM (inactive).
`CN1C2C=C(N(CCc3ccccc3)C(=O)c3ccc(Cl)cc3)CC1CC2` (stereo unspecified) was tested, and the EC50 (Mu-type opioid receptor) was 67.3 µM (inactive), the EC50 [4] was > 92.5 µM (inactive) and the EC50 [5] was > 92.5 µM (inactive). For the same compound, the EC50 [6] was 531 nM (active).
For `N#Cc1c(SCC(=O)Nc2nc3ccccc3s2)sc2c(O)cc(O)nc12`, the IC50 [1] was 18.8 µM (active), the IC50 [2] was > 100 µM (inactive) and the IC50 [3] was > 100 µM (inactive).
With `CC(C)n1ncc2c(C(=O)N3CCN(Cc4ccc(Br)s4)CC3)cc(C3CC3)nc21` the AC50 (Escherichia coli [9]) was 76 µM (active).
For `O=C(CSc1nnc2sc3ccccc3n12)NCc1ccco1`, the AC50 (Cytochrome P450 2C9) was “inconclusive”.
In the case of `C[C@H]1c2cccc(O)c2C(=O)C2C(=O)C3(O)C(=O)C(C(N)=O)C(=O)[C@@H](N(C)C)[C@@H]3[C@@H](O)[C@@H]21` (stereo partly specified), the AC50 (Escherichia coli [10]) is reported as 12.3 µM (active) and the AC50 (Escherichia coli [9]) is reported as 0.882 µM (active).
For `CN(C)CCCNC(=O)c1ccc(-c2cc(O)c3ncccc3c2)cc1`, the IC50 [11] was 3.15 µM (active), the IC50 (Nonstructural protein 1) was 4.25 µM (active) and the IC50 [12] was 3.89 µM (active). The AC50 [13] was 849 nM (active) and the IC50 (Bcl-2-related protein A1) was 7.49 µM (active).
In the case of `CC(C)=CCC/C(C)=C/CNC(=O)C[C@H]1C[C@H](C(=O)N2CCOCC2)[C@@]2(C)c3[nH]c4ccc(Cl)cc4c3CCN2C1=O`, the AC50 (Paired box protein Pax-8) is reported as 11.8 µM (active) and the AC50 (Escherichia coli [9]) is reported as 112 µM (active).
`CCNC(=O)CCc1nc(-c2ccc(OCC)cc2)no1` was tested, and the IC50 (HEK293) was > 80 µM (inactive).
In the case of `O=C1/C(=C/c2ccc3c(c2)OCO3)SC(=S)N1CCC(=O)N(CCO)c1ccccc1`, the EC50 [7] is reported as 90.4 µM (inactive) and the EC50 [8] is reported as > 99 µM (inactive).
`CCOc1ccc(-c2nc3ccccn3c2-c2ccnc(Nc3cccc(CCN(C)C)c3)n2)cc1` was tested, and the Ki [14] was 316 nM (active) and the Ki [15] was 6.31 µM (active).
`COc1ccccc1/N=C/c1c(C)c(C#N)c2nc3ccccc3n2c1O` was tested, and the EC50 [7] was > 99 µM (inactive) and the EC50 [8] was > 99 µM (inactive).
